Our source for the IC50 values is EP1157985A1 (G.D. SEARLE & CO., priority 1996, dated 1997).

Counter-ions that a name gives are not always drawn.

The target of experiment [1] is T1, Human vitronectin receptor (αvβ3) (Homo sapiens, UniProt P05106+P06756).
T1 construct: Human vitronectin receptor (αvβ3) was purified from human placenta; from tissue; host or cells: human placenta
Briefly: Vitronectin adhesion assay (solid phase receptor assay, competition with biotinylated vitronectin). As to conditions: purified receptor from human placenta; 1 nM biotinylated vitronectin; highest concentration tested 1.0 x 10^-4 M; read-out: AvB3 IC50. It counts as binding. Here is the method:
VITRONECTIN ADHESION ASSAY
Human vitronectin receptor (αvβ3) was purified from human placenta as previously described [Pytela et al., Methods in Enzymology, 144:475-489 (1987)]. Human vitronectin was purified from fresh frozen plasma as previously described [Yatohgo et al., Cell Structure and Function, 13:281-292 (1988)]. Biotinylated human vitronectin was prepared by coupling NHS-biotin from Pierce Chemical Company (Rockford, IL) to purified vitronectin as previously described [Charo et al., J. Biol. Chem., 266(3):1415-1421 (1991)]. Assay buffer, OPD substrate tablets, and RIA grade BSA were obtained from Sigma (St. Louis, MO). Anti-biotin antibody was obtained from Calbiochem (La Jolla, CA). Linbro microtiter plates were obtained from Flow Labs (McLean, VA). ADP reagent was obtained from Sigma (St. Louis, MO).
This assay was essentially the same as previously reported [Niiya et al., Blood, 70:475-483 (1987)]. The purified human vitronectin receptor (αvβ3) was diluted from stock solutions to 1.0 µg/mL in Tris-buffered saline containing 1.0 mM Ca^++, Mg^++, and Mn^++, pH 7.4 (TBS^+++). The diluted receptor was immediately transferred to Linbro microtiter plates at 100 µL/well (100 ng receptor/well). The plates were sealed and incubated overnight at 4°C to allow the receptor to bind to the wells. All remaining steps were at room temperature. The assay plates were emptied and 200 µL of 1% RIA grade BSA in TBS^+++ (TBS^+++/BSA) were added to block exposed plastic surfaces. Following a 2 hour incubation, the assay plates were washed with TBS^+++ using a 96 well plate washer. Logarithmic serial dilution of the test compound and controls were made starting at a stock concentration of 2 mM and using 2 nM biotinylated vitronectin in TBS^+++/BSA as the diluent. This premixing of labeled ligand with test (or control) ligand, and subsequent transfer of 50 µL aliquots to the assay plate was carried out with a CETUS Propette robot; the final concentration of the labeled ligand was 1 nM and the highest concentration of test compound was 1.0 x 10^-4 M. The competition occurred for two hours after which all wells were washed with a plate washer as before. Affinity purified horseradish peroxidase labeled goat anti-biotin antibody was diluted 1:3000 in TBS^+++/BSA and 125 µL were added to each well. After 30 minutes, the plates were washed and incubated with OPD/H2O2 substrate in 100 mM/L Citrate buffer, pH 5.0. The plate was read with a microtiter plate reader at a wavelength of 450 nm and when the maximum-binding control wells reached an absorbance of about 1.0, the final A450 were recorded for analysis. The data were analyzed using a macro written for use with the EXCEL™ spreadsheet program. The mean, standard deviation, and %CV were determined for duplicate concentrations. The mean A450 values were normalized to the mean of four maximum-binding controls (no competitor added)(B-MAX). The normalized values were subjected to a four parameter curve fit algorithm [Rodbard et al., Int.

The target of experiment [2] is T2, Human fibrinogen receptor (αIIbβ3) (Homo sapiens, UniProt P05106+P08514).
T2 construct: Human fibrinogen receptor (αIIbβ3) was purified from outdated platelets; from tissue; host or cells: outdated (human) platelets
Briefly: Purified IIb/IIIa receptor assay (solid phase receptor assay, competition with biotinylated vitronectin). It counts as binding. The conditions noted are these: purified receptor from outdated platelets; 1 nM biotinylated vitronectin; highest concentration tested 1.0 x 10^-4 M. From the text:
PURIFIED IIb/IIIa RECEPTOR ASSAY
Human fibrinogen receptor (αIIbβ3) was purified from outdated platelets. (Pytela, R., Pierschbacher, M.D., Argraves, S., Suzuki, S., and Rouslahti, E. "Arginine-Glycine-Aspartic acid adhesion receptors", Methods in Enzymology 144(1987):475-489.) Human vitronectin was purified from fresh frozen plasma as described in Yatohgo, T., Izumi, M., Kashiwagi, H., and Hayashi, M., "Novel purification of vitronectin from human plasma by heparin affinity chromatography," Cell Structure and Function 13(1988):281-292. Biotinylated human vitronectin was prepared by coupling NHS-biotin from Pierce Chemical Company (Rockford, IL) to purified vitronectin as previously described. (Charo, I.F., Nannizzi, L., Phillips, D.R., Hsu, M.A., Scarborough, R.M., "Inhibition of fibrinogen binding to GP IIb/IIIa by a GP IIIa peptide", J. Biol. Chem. 266(3)(1991): 1415-1421.) Assay buffer, OPD substrate tablets, and RIA grade BSA were obtained from Sigma (St. Louis, MO). Anti-biotin antibody was obtained from Calbiochem (La Jolla, CA). Linbro microtiter plates were obtained from Flow Labs (McLean, VA). ADP reagent was obtained from Sigma (St. Louis, MO).
This assay is essentially the same reported in Niiya, K., Hodson, E., Bader, R., Byers-Ward, V. Koziol, J.A., Plow, E.F. and Ruggeri, Z.M., "Increased surface expression of the membrane glycoprotein IIb/IIIa complex induced by platelet activation: Relationships to the binding of fibrinogen and platelet aggregation", Blood 70(1987):475-483. The purified human fibrinogen receptor (αIIbβ3) was diluted from stock solutions to 1.0 µg/mL in Tris-buffered saline containing 1.0 mM Ca^++, Mg^++, and Mn^++, pH 7.4 (TBS^+++). The diluted receptor was immediately transferred to Linbro microtiter plates at 100 µL/well (100 ng receptor/well). The plates were sealed and incubated overnight at 4°C to allow the receptor to bind to the wells. All remaining steps were at room temperature. The assay plates were emptied and 200 µL of 1% RIA grade BSA in TBS^+++ (TBS^+++/BSA) were added to block exposed plastic surfaces. Following a 2 hour incubation, the assay plates were washed with TBS^+++ using a 96 well plate washer. Logarithmic serial dilution of the test compound and controls were made starting at a stock concentration of 2 mM and using 2 nM biotinylated vitronectin in TBS^+++/BSA as the diluent. This premixing of labeled ligand with test (or control) ligand, and subsequent transfer of 50 µL aliquots to the assay plate was carried out with a CETUS Propette robot; the final concentration of the labeled ligand was 1 nM and the highest concentration of test compound was 1.0 x 10^-4 M. The competition occurred for two hours after which all wells were washed with a plate washer as before. Affinity purified horseradish peroxidase labeled goat anti-biotin antibody was diluted 1:3000 in TBS^+++/BSA and 125 µL were added to each well. After 30 minutes, the plates were washed and incubated with […] substrate in 100 mM/L citrate buffer, pH 5.0. The plate was read with a microtiter plate reader at a wavelength of 450 nm and when the maximum-binding control wells reached an absorbance of about 1.0, the final A450 were recorded for analysis. The data were analyzed using a macro written for use with the EXCEL™ spreadsheet program. The mean, standard deviation, and %CV were determined for duplicate concentrations. The mean A450 values were normalized to the mean of four maximum-binding controls (no competitor added)(B-MAX). The normalized values were subjected to a four parameter curve fit algorithm, [Robard et al., Int. […]

Turning to `N=C(N)Nc1cccc(C(=O)Nc2ccc(CC(NS(=O)(=O)c3cc(Cl)cc(Cl)c3)C(=O)O)cc2)c1` (centres unmarked) [Example 122, [4-[[[3-[(aminoiminomethyl)amino]phenyl]carbonyl]-amino]-N-[(3,5-dichlorophenyl)sulfonyl]phenyl-alanine, trifluoroacetate salt], the IC50 in experiment [1] stood at 7 nM; in experiment [2], 50 nM.
On to `N=C(N)Nc1cccc(NC(=O)Cc2ccc(OCC(=O)O)cc2)c1` [Example 84, [4-[2-[[3-[(aminoiminomethyl)amino]phenyl]amino]-2-oxoethyl]phenoxy]acetic acid, trifluoroacetate salt], for which the IC50 was 16300 nM in experiment [1] and 486 nM in experiment [2].
As for `CN(C(=O)c1cccc(NC(=N)N)c1)c1ccc(CCC(=O)O)cc1` [Example 61, 4-[[[3-[(aminoiminomethyl)amino]phenyl]carbonyl]methylamino]benzenepropanoic acid, monohydrate trifluoroacetate salt], the IC50 was 470 nM in experiment [1] and 666 nM in experiment [2].
On to `N=C(N)Nc1cccc(C(=O)Nc2ccc(CC(NS(=O)(=O)c3ccccc3)C(=O)O)cc2)c1` (centres unmarked) [Example 51, trifluoroacetate salt], for which the IC50 came out at 0.63 nM in experiment [1] and 0.71 nM in experiment [2].
For `N=C(N)c1cccc(C(=O)NCc2ccc(CCC(=O)O)cc2)c1` [Example 19, 4-[[[[3-(aminoiminomethyl)phenyl]carbonyl]amino]methyl]benzenepropanoic acid, trifluoroacetate salt], the IC50 is over 100000 nM in experiment [1] and 1780 nM in experiment [2].
On the same counts, the results for `N=C(N)Nc1cccc(C(=O)Nc2ccc(OC(C(=O)O)c3ccccc3)cc2)c1` (stereo not drawn) [Example 86, α-[4-[[[3-[(aminoiminomethyl)amino]phenyl]carbonyl]amino]phenoxy]benzeneacetic acid, trifluoroacetate salt] are 307 nM and 3140 nM.
The like results for `CC(C)(C)OC(=O)N[C@@H](Cc1ccc(NC(=O)c2cccc(NC(=N)N)c2)cc1)C(=O)O` [Example 56, trifluoroacetate salt] were, in that order, 0.43 nM and 6.35 nM.
On the same counts, the results for `CC(=O)NC(Cc1ccc(NC(=O)Nc2cccc(NC(=N)N)c2)cc1)C(=O)O` (centres unmarked) [Example 68, N-acetyl-4-[[[[3-[(aminoiminomethyl)amino]phenyl]amino]carbonyl]amino]phenylalanine, trifluoroacetate salt] are 782 nM and 103 nM.
With `CCOC(=O)CCc1ccc(N(C)C(=O)c2cccc(NC(=N)N)c2)cc1` [Example 60, ethyl 4-[[[3-[(aminoiminomethyl)amino]phenyl]carbonyl]methylamino]benzenepropanoate, trifluoroacetate salt], the IC50 was found to be 3370 nM in experiment [1] and 3810 nM in experiment [2].
Turning to `CC(C)(C)OC(=O)N[C@H](Cc1ccc(NC(=O)c2cccc(NC(=N)N)c2)cc1)C(=O)O` [Example 57, 4-[[[3-[(aminoiminomethyl)amino]phenyl]carbonyl]amino]-N-[(1,1-dimethylethoxy)carbonyl]-D-phenylalanine, monohydrate trifluoroacetate salt], the IC50 in experiment [1] worked out at 14.5 nM; in experiment [2] it was 318 nM.
Consider `CC(Oc1ccc(NC(=O)c2cccc(NC(=N)N)c2)cc1)C(=O)O` (centres unmarked) [Example 85, 2-[4-[[[3-[(aminoiminomethyl)amino]phenyl]. carbonyl]amino]phenoxy]propanoic acid, trifluoroacetate salt], for which the IC50 is 827 nM in experiment [1] and 12600 nM in experiment [2].
On the same counts, the results for `O=C(O)CCc1ccc(NC(=O)c2cccc(NC3=NCCCN3)c2)cc1C(=O)O` [Example 102, 2-carboxy-4-[[[3-[(1,4,5,6-tetrahydropyrimidin-2-yl)-amino]phenyl]carbonyl]amino]benzenepropanoic acid, trifluoroacetate salt] are 6 nM and 4710 nM.
In the case of `CCOC(=O)C(Cc1ccc(NC(=O)c2cccc(NC(=N)N)c2)cc1)NC(=O)OC(C)(C)C` (centres unmarked) [Example 44, trifluoroacetate salt], the IC50 was 120 nM in experiment [1] and 4310 nM in experiment [2].
On the same counts, the results for `CC(C)OC(=O)NC(Cc1ccc(NC(=O)c2cccc(Nc3noc(N)n3)c2)cc1)C(=O)O` (racemic) [Example 104, (±) 4-[[[3-[(5-amino-1,2,4-oxadiazol-3-yl)amino]-phenyl]carbonyl]amino]-N-[(1-methylethoxy)carbonyl]phenylalanine, trifluoroacetate salt] are 506 nM and 1600 nM.
The like results for `NC(N)=Nc1cccc(C(=O)Nc2ccc(CCC(=O)O)cc2)c1` [Example 64, 4-[[[3-[(aminoiminomethyl)amino]phenyl]carbonyl]amino]benzenepropanoic acid, hydrochloride] were, in that order, 21.2 nM and 93.1 nM.
For `O=C(Nc1ccc(CC(NS(=O)(=O)c2ccccc2)C(=O)O)cc1)c1cccc(NC2=NCCN2)c1` (centres unmarked) [Example 112, 4-[[[3-[(4,5-dihydro-1H-imidazol-2-yl)amino]phenyl]-carbonyl]amino-N-(phenylsulfonyl)phenylalanine, trifluoroacetate salt], the figures for the half-maximal inhibitory concentration (IC50) in experiment [1] and in experiment [2] were 0.3 nM and 13 nM, respectively.
